Data as given in US4233304A, “Pyridoxine derivatives” (Crinos Industria Farmacobiologica S.p.A., priority 1978, dated 1980).

Key:
[1] = Acute toxicity per os, single dose, LD50; details: mouse, in vivo, po
Protocol: The acute toxicity has been determined by administering the substances per os in a sole dose to the mouse after 18 hours of fasting. The LD50 has been determined according to Litchfield and Wilcoxon (J. Pharmacol. Exp. Ther. 96, 99, 1949).

[2] = Analgesic activity, test of Randall and Selitto; format: in vivo; details: rat, variation from algogenic stimulus vs controls
Protocol: Test of Randall and Selitto (Arch. Ing. Pharmacodyn., 111, 409, 1957) on the rat. The analgesic activity is expressed as a percent variation from the algogenic stimulus, after 3 and 5 hours with respect to the controls.

[3] = Anti-inflammatory activity, caraganin-edema test according to Winter et al; format: in vivo; details: rat, vs controls
Text: As referred above, the inventive compound of the instant invention show anti-inflammatory activity and moreover may show, although not necessarily, also analgesic and/or anti-pyretic activity. The anti-inflammatory activity of the novel compounds of the instant invention has been confirmed by means of the caraganin-edema test on the rat.
Caraganin-edema test according to Winter et al (Proc. Soc. Exp. Biol. Med., 111, 544, 1962) in the normal rat. […]

in vivo = details: rat, po
Protocol: The ulcer-causing activity has been determined by administering the substances per os to rats which have fasted 18 hours and evaluating the presence of gastric lesions 7 hours after the treatment. The UD50 has been determined according to Litchfield and Wilcoxon (J. Pharmacol. Exp. Ther. 96, 99, 1949).

mouse = details: footnote (1) Adams S.S. et al., Tox. Appl. Pharmacol., 15, 310, 1969; cited from earlier work

SMILES	LD50 [1]	Analgesic activity Variation ([2]; 12.5 mg/kg per os, 3 hrs)	Analgesic activity Variation ([2]; 12.5 mg/kg per os, 5 hrs)	Analgesic activity Variation ([2]; 50 mg/kg per os, 3 hrs)	Analgesic activity Variation ([2]; 50 mg/kg per os, 5 hrs)	Anti-inflammatory Inhibition ([3]; 6.25 mg/kg per os, 3 hrs)	Anti-inflammatory Inhibition ([3]; 6.25 mg/kg per os, 5 hrs)	Anti-inflammatory Inhibition ([3]; 12.5 mg/kg per os, 3 hrs)	Anti-inflammatory Inhibition ([3]; 12.5 mg/kg per os, 5 hrs)	Anti-inflammatory Inhibition ([3]; 25 mg/kg per os, 3 hrs)	Anti-inflammatory Inhibition ([3]; 25 mg/kg per os, 5 hrs)	Anti-inflammatory Inhibition ([3]; 50 mg/kg per os, 3 hrs)	Anti-inflammatory Inhibition ([3]; 50 mg/kg per os, 5 hrs)	TD50 at 7 h (in vivo)	Anti-inflammatory Inhibition ([3]; 100 mg/kg per os, 3 hrs)	Anti-inflammatory Inhibition ([3]; 100 mg/kg per os, 5 hrs)	LD50 per os/mouse (mouse)
Cc1ncc(COC(=O)C(C)c2ccc(CC(C)C)cc2)c(CO)c1O (stereo not drawn) [2-(4-isobutyl-phenyl)-propionic pyridoxine 5-ester]	> 2000 mg/kg	+61.2%	+71.4%	+129.6%	+134.3%	27.1%	24.8%	41.1%	28.4%	48.6%	37.6%	55.1%	42%	365 mg/kg			
CC(C)Cc1ccc(C(C)C(=O)O)cc1 (stereo not drawn) [2-(4-isobutylphenyl)-propionic acid, reference compound]		+86.7%	+83.8%	+146.9%	+69.5%			33.6%	16.5%	43.9%	19.3%	54.2%	26.6%	38 mg/kg	49.5%	32.1%	800 mg/kg
Cc1ncc(COC(=O)C(C)c2ccc(CC(C)C)cc2)c2c1OC(C)(C)OC2 (stereo not drawn) [2-(4-isobutylphenyl)-propionic isopropylidenepyridoxine 5-ester]	> 2200 mg/kg	+77.5%	+39.0%	+122.5%	+78.1%			19.6%	18.3%	13.1%	12.8%	43.9%	39.4%	> 400 mg/kg	60.7%	42.2%	
